“And” between values parts separate entries of the source, which are not always exact repeats. Identical values can stand only once.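 How tested: cells in 96-well plates exposed to compound for 48 hours at five concentrations. GI50 marks 50% less growth.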 The source made the active and inactive calls. No stated cut-off is given here; in the data, active = GI50 up to about 1.1 µM and inactive = higher.

Among the test systems are HCC 2998; Hs-578T; A498; OVCAR-4; TK-10; HOP-92; HOP-62; T47D; SK-MEL-2; COLO 205; HT-29; Malme-3M; DU-145; PC-3; NCI-H23; SK-OV-3; M14.
Holding throughout (test): NCI anticancer screen, dose series, 48 h

On to `CC(=O)C1C(=O)C(C(C)=O)C2C3C=CC(C3)C12` (stereo unspecified), for which the GI50 in the assay on HCC 2998, in the assay with Hs-578T, in the assay with A498, with OVCAR-4, with TK-10 and in the assay on HOP-92 was > 100 µM (inactive) in each case. Moreover, the GI50 in the assay with HOP-62, in the assay with T47D, with SK-MEL-2, in the assay with COLO 205, in the assay on HT-29 and in the assay on Malme-3M was > 100 µM (inactive) throughout. Also, the GI50 in the assay on DU-145, with PC-3, with NCI-H23 and with SK-OV-3 was > 100 µM (inactive) in each case.

On to `O=C(CN1CCOCC1)CC(O)(C(F)(F)F)C(F)(F)F`, for which the GI50 in the assay with HCC 2998 was 67.3 µM (inactive); in the assay on Hs-578T, 35.6 µM (inactive); in the assay on A498, > 100 µM (inactive); with OVCAR-4 it was > 100 µM (inactive); in the assay with TK-10, > 100 µM (inactive); in the assay on HOP-92, 29.6 µM (inactive). In addition, the GI50 in the assay on T47D was 42.4 µM (inactive); with SK-MEL-2 it was 97.3 µM (inactive); with COLO 205, > 100 µM (inactive); with HT-29, > 10 µM (inactive); in the assay on Malme-3M, > 100 µM (inactive); with DU-145, > 100 µM (inactive). In addition, the GI50 in the assay on M14 was > 100 µM (inactive); with PC-3, 32.1 µM (inactive); with NCI-H23, 33.5 µM (inactive); with SK-OV-3, > 100 µM (inactive).

`COc1ccccc1/C=C(/C)[N+](=O)[O-]`: the GI50 was 1.48 µM (inactive) and 3.94 µM (inactive) in the assay on HCC 2998; 4.55 µM (inactive) and 4.24 µM (inactive) in the assay on Hs-578T; 7.13 µM (inactive) and 5.14 µM (inactive) with A498; 5.94 µM (inactive) and 3.86 µM (inactive) in the assay with OVCAR-4; 2.06 µM (inactive) and 4.06 µM (inactive) with TK-10; 2.21 µM (inactive) in the assay on HOP-92. In addition, the GI50 is 1.81 µM (inactive) and 3.37 µM (inactive) in the assay with HOP-62; 1.44 µM (inactive) and 1.04 µM (active) in the assay with T47D; 1.99 µM (inactive) and 2.53 µM (inactive) in the assay with SK-MEL-2; 3.05 µM (inactive) and 1.83 µM (inactive) in the assay on COLO 205; 3.65 µM (inactive) and 3.44 µM (inactive) in the assay on HT-29; 2.51 µM (inactive) and 1.85 µM (inactive) with Malme-3M. The GI50 in the assay with DU-145 was 1.02 µM (active) and 1.04 µM (active); with M14 it was 1.37 µM (inactive) and 1.21 µM (inactive); with PC-3 it was 2.79 µM (inactive) and 2.53 µM (inactive); with NCI-H23, 2.15 µM (inactive) and 2.2 µM (inactive).

As to `O=C(O)CCN1CCN(CCC(=O)O)CCN(CCC(=O)O)CC1`, the GI50 in the assay with HCC 2998, in the assay on Hs-578T, in the assay on A498, with OVCAR-4, in the assay on TK-10 and in the assay with HOP-92 was > 100 µM (inactive) each time. Further, the GI50 in the assay with HOP-62 is > 100 µM (inactive); with T47D, > 100 µM (inactive); in the assay with SK-MEL-2 it was > 100 µM (inactive); with COLO 205, 92.7 µM (inactive); in the assay with HT-29, 53.6 µM (inactive); in the assay with Malme-3M, > 100 µM (inactive). The GI50 in the assay with DU-145, with M14, with PC-3 and with SK-OV-3 was > 100 µM (inactive) each time.

Turning to `ClCCN1CCO/C1=N/c1ccc2c(c1)CCCC2`, the GI50 in the assay on HCC 2998 was 14.1 µM (inactive); in the assay with Hs-578T it was 13.9 µM (inactive); in the assay on A498, 6.92 µM (inactive); with OVCAR-4, 6.1 µM (inactive); in the assay on HOP-92, 11.2 µM (inactive); in the assay on HOP-62, 4.67 µM (inactive). Moreover, the GI50 with T47D was 8.51 µM (inactive); in the assay on SK-MEL-2, 13.7 µM (inactive); with COLO 205 it was 12.2 µM (inactive); in the assay with HT-29, 14.4 µM (inactive); in the assay on Malme-3M, 7.19 µM (inactive); in the assay with DU-145, 15.7 µM (inactive). Further, the GI50 in the assay on M14 was 13.3 µM (inactive); in the assay with PC-3 it was 4.44 µM (inactive); with NCI-H23 it was 8.95 µM (inactive); in the assay with SK-OV-3, 20.7 µM (inactive).

Turning to `CC[C@@H]1/C=C/C=C/C[C@H](C)[C@@H](O)[C@](C)(O)C(=O)[C@H](C)[C@@H](O)[C@H](C)C(=O)[C@H](C)[C@@H](O)[C@H](C)/C=C/C(=O)O[C@H]2[C@@H](C)[C@@H](CC1)O[C@]1(O[C@H](CC(C)O)[C@H](C)CC1=O)[C@@H]2C` (stereo partly specified), the GI50 with HCC 2998 is 3.53 µM (inactive); with Hs-578T it was 5.36 µM (inactive); in the assay with A498, 0.108 µM (active); with OVCAR-4, 2.56 µM (inactive); with TK-10 it was 1.22 µM (inactive); with HOP-92 it was 4.23 µM (inactive). The GI50 with HOP-62 was 3.18 µM (inactive); in the assay with T47D, < 0.0025 µM (active); in the assay with SK-MEL-2 it was 3.89 µM (inactive); in the assay with COLO 205, < 0.0025 µM (active); in the assay on HT-29, 2.92 µM (inactive); with Malme-3M, 4.93 µM (inactive). Moreover, the GI50 in the assay with DU-145 is 3.3 µM (inactive); in the assay with M14 it was 3.14 µM (inactive); with PC-3 it was < 0.0025 µM (active); with NCI-H23 it was < 0.0025 µM (active); with SK-OV-3 it was 5.66 µM (inactive).

As for `CC(C)(C)C1=C(Br)C(F)(C(C)(C)C)OP1(=O)c1ccccc1` (stereo unspecified), the GI50 in the assay with HCC 2998 was 13.8 µM (inactive); in the assay on Hs-578T it was 29.6 µM (inactive); in the assay with A498 it was 24.8 µM (inactive); in the assay on OVCAR-4, 10.1 µM (inactive); with TK-10, 18.8 µM (inactive); with HOP-92, 18.7 µM (inactive). The GI50 is 16.3 µM (inactive) in the assay with HOP-62; 15.9 µM (inactive) with T47D; 20.6 µM (inactive) in the assay on SK-MEL-2; 16 µM (inactive) in the assay with COLO 205; 19 µM (inactive) with HT-29; 17.9 µM (inactive) with Malme-3M. In addition, the GI50 in the assay with DU-145 was 18 µM (inactive); with M14 it was 14.8 µM (inactive); in the assay on PC-3 it was 18 µM (inactive); in the assay on NCI-H23 it was 19.5 µM (inactive); with SK-OV-3 it was 18 µM (inactive).

Consider `COC(=O)c1cc2c(c3c1CC(Cc1ccccc1)C3=O)CCC2` (stereo unspecified), for which the GI50 in the assay with HCC 2998 is 36.7 µM (inactive); with Hs-578T, 45.9 µM (inactive); in the assay with A498 it was > 100 µM (inactive); with OVCAR-4, 81.1 µM (inactive); in the assay with TK-10 it was > 100 µM (inactive); in the assay with HOP-92, 25.1 µM (inactive). Moreover, the GI50 in the assay on HOP-62 is 99.3 µM (inactive); in the assay with T47D it was 25.5 µM (inactive); in the assay on COLO 205, > 100 µM (inactive); in the assay on HT-29 it was 74.1 µM (inactive); in the assay on Malme-3M, 54.1 µM (inactive); in the assay on DU-145, 61.4 µM (inactive). In addition, the GI50 in the assay on M14 was 93.3 µM (inactive); in the assay on PC-3, > 100 µM (inactive); with NCI-H23 it was 64.4 µM (inactive); in the assay on SK-OV-3, 80.5 µM (inactive).

Take `COc1ccc(/N=N/C(=O)NC(CC(C)C)C(=O)NCC(=O)O)cc1` (stereo unspecified): the GI50 with HCC 2998 was 8.97 µM (inactive); in the assay with Hs-578T, 89.3 µM (inactive); in the assay on A498 it was > 100 µM (inactive); in the assay with OVCAR-4, > 51.5 µM (inactive); in the assay with TK-10, 25.3 µM (inactive); with HOP-92, > 100 µM (inactive). The GI50 in the assay with HOP-62 is 41.6 µM (inactive); with T47D, 3.03 µM (inactive); with SK-MEL-2, > 18.4 µM (inactive); in the assay with COLO 205, 4.47 µM (inactive); in the assay with HT-29 it was 14.8 µM (inactive); with Malme-3M, 19.7 µM (inactive). For the same compound, the GI50 with DU-145 was 12.2 µM (inactive); with M14 it was 2.94 µM (inactive); in the assay with PC-3, 4.17 µM (inactive); with NCI-H23 it was 57.3 µM (inactive); with SK-OV-3, > 100 µM (inactive).

Take `CC(C)=CCC[C@@H](C)C1=C(O)C(=O)C(C)=C(c2c(I)c(=O)n(C)c(=O)n2C)C1=O`: the GI50 in the assay with HCC 2998 is > 100 µM (inactive); with Hs-578T, 76.6 µM (inactive); in the assay on A498, > 100 µM (inactive); with OVCAR-4, > 100 µM (inactive); in the assay on TK-10, > 100 µM (inactive); with HOP-92, > 100 µM (inactive). Besides, the GI50 in the assay with HOP-62, in the assay on T47D, with SK-MEL-2, with COLO 205, with HT-29 and in the assay with Malme-3M was > 100 µM (inactive) each time. For the same compound, the GI50 was > 100 µM (inactive) with DU-145; > 100 µM (inactive) in the assay with M14; 49.7 µM (inactive) in the assay on PC-3; > 100 µM (inactive) in the assay with NCI-H23; > 100 µM (inactive) with SK-OV-3.

For the compound `CN1C(=O)c2ccccc2NC(=O)C12O[C@@H]2c1cccc(O)c1` (stereo partly specified), the GI50 with HCC 2998, with Hs-578T, in the assay on A498, with OVCAR-4, with TK-10 and in the assay with HOP-92 was > 100 µM (inactive) each time. Further, the GI50 with HOP-62, with T47D, in the assay on SK-MEL-2, in the assay on COLO 205, in the assay with HT-29 and in the assay with Malme-3M was > 100 µM (inactive) each time. For the same compound, the GI50 with DU-145, with M14, in the assay on PC-3 and with NCI-H23 was > 100 µM (inactive) throughout.

Consider `C=C(Cl)[C@](Cl)(CBr)CC[C@@H](Br)C(C)(C)Cl` [HALOMON], for which the GI50 was 1.5 µM (inactive) in the assay with HCC 2998; 0.611 µM (active) in the assay with Hs-578T; 1.97 µM (inactive) with A498; 1.46 µM (inactive) in the assay with OVCAR-4; 1.81 µM (inactive) in the assay on TK-10; 0.378 µM (active) with HOP-92. The GI50 in the assay on HOP-62 was 0.23 µM (active); in the assay with T47D, 3.18 µM (inactive); with COLO 205, 1.84 µM (inactive); in the assay on HT-29, 0.783 µM (active); in the assay on Malme-3M, 11.5 µM (inactive); in the assay with DU-145, 1.1 µM (active). Also, the GI50 was 15.7 µM (inactive) in the assay with M14, 0.319 µM (active) in the assay on PC-3, 11.4 µM (inactive) in the assay with NCI-H23 and 9.57 µM (inactive) in the assay on SK-OV-3.

For the origin of these results see ChEMBL document CHEMBL1201862, “PubChem BioAssay data set” (2004).
